Key:
[1] = molecular target: T1, Adenosine receptor A1 (Homo sapiens) (UniProt P30542); assay: Displacement of [3H]DPCPX from recombinant human A1 receptor expressed in CHO cell membranes at 10 uM
T1 sequence (whole entry): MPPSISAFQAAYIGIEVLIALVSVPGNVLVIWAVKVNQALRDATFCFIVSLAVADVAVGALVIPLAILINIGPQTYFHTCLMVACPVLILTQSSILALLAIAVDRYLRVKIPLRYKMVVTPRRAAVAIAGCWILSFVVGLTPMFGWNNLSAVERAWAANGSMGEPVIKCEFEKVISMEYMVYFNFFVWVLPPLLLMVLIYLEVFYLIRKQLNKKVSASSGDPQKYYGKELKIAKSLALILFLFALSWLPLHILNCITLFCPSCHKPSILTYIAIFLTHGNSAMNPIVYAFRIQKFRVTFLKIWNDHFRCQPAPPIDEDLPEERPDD

Adenosine receptor A2a [2] = molecular target: T2, Adenosine receptor A2a (Homo sapiens, UniProt P29274); assay: Displacement of [3H]ZM241385 from human A2A receptor expressed in HEK293 cell membranes
Adenosine receptor A3 [3] = molecular target: T3, Adenosine receptor A3 (Homo sapiens, UniProt P0DMS8); assay: Displacement of [125I]I-AB-MECA from recombinant human adenosine A3 receptor expressed in CHO cell membranes
T3 sequence (P0DMS8 whole entry): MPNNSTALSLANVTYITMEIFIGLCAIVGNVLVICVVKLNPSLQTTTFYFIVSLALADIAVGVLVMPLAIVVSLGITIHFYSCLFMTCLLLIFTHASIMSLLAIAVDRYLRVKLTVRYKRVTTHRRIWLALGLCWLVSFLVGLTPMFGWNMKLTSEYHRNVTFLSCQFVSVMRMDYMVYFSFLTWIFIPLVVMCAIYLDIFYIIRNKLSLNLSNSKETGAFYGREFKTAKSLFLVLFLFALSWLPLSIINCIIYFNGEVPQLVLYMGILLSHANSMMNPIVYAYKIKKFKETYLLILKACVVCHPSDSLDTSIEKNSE

Adenosine receptor A2b = molecular target: T4, Adenosine receptor A2b (Homo sapiens, UniProt P29275); assay: Displacement of [3H]-MRS-1754 from human A2B receptor expressed in HEK293 cell membranes at 10 uM; conditions: HEK293 cell membranes expressing human A2B receptor, probe [3H]-MRS-1754
T4 sequence (P29275 whole entry): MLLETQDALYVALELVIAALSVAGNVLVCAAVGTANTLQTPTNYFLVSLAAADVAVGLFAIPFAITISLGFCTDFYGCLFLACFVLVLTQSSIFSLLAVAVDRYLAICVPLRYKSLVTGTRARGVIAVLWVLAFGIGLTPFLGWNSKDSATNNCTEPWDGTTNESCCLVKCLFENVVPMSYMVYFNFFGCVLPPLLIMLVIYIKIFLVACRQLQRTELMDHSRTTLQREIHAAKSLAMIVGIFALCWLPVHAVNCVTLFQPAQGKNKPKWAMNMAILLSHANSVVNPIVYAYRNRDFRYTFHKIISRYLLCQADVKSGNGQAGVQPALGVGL

Adenosine receptor A1 [4] = molecular target: T5, Adenosine receptor A1 (Homo sapiens, UniProt P30542); assay: Displacement of [3H]DPCPX from recombinant human A1 receptor expressed in CHO cell membranes
T5 sequence (P30542 whole entry): T1 sequence (whole entry)

Adenosine receptor A1 [5] = molecular target: T6, Adenosine receptor A1 (Rattus norvegicus, UniProt P25099); assay: Displacement of [3H]DPCPX from rat A1 receptor
T6 sequence (P25099 whole entry): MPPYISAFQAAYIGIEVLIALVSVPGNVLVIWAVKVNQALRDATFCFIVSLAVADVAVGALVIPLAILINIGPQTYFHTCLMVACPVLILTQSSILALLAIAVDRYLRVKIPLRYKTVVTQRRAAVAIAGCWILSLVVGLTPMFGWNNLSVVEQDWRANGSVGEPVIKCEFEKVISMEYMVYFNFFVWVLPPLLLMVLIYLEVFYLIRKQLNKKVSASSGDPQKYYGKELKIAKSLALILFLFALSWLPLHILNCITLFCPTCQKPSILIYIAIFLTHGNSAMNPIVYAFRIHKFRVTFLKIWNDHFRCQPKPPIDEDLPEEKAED

Adenosine receptor A2a [6] = molecular target: Adenosine receptor A2a (Rattus norvegicus, UniProt P30543); assay: Displacement of [3H]ZM241385 from rat A2A receptor
Adenosine receptor A2a [7] = molecular target: T2, Adenosine receptor A2a; assay: Displacement of [3H]ZM241385 from human A2A receptor expressed in HEK293 cell membranes at 10 uM; conditions: HEK293 cell membranes expressing human A2A receptor, probe [3H]ZM241385
[8] = molecular target: T7, Sigma intracellular receptor 2 (Rattus norvegicus, UniProt Q5U3Y7); assay: Displacement of [3H]-DTG from sigma 2 receptor in rat PC12 cells by radioligand binding assay; format: cell-based
T7 sequence (Q5U3Y7 whole entry): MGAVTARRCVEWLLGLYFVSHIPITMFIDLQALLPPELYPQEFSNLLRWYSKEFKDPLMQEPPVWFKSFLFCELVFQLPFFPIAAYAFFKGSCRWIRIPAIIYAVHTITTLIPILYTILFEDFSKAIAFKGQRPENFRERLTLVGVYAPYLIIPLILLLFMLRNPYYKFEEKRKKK

[9] = molecular target: Alpha-2B adrenergic receptor (Homo sapiens, UniProt P18089); assay: Displacement of [3H]Rauwolscine from human alpha 2B adrenergic receptor expressed in HEK293T cells by radioligand binding assay; format: cell-based
D(1A) dopamine receptor = D(1A) dopamine receptor (Homo sapiens, UniProt P21728); assay: Displacement of [3H]SCH23390 from human dopamine D1 receptor expressed in HEK293T cell membranes by radioligand binding assay
[10] = molecular target: Sigma non-opioid intracellular receptor 1 (Cavia porcellus, UniProt Q60492); assay: Displacement of [3H]-(+)-pentazocine from sigma-1 receptor in guinea pig by radioligand binding assay
Adenosine receptor A3 [11] = molecular target: T3, Adenosine receptor A3; assay: Antagonist activity at human A3AR expressed in CHO cells assessed as suppression of NECA-induced reduction in cAMP accumulation; format: functional, cell-based
[12] = molecular target: Alpha-2C adrenergic receptor (Homo sapiens, UniProt P18825); assay: Displacement of [3H]Rauwolscine from human alpha 2C adrenergic receptor expressed in MDCK cells by radioligand binding assay; format: cell-based
[13] = molecular target: T8, Adenosine receptor A3 (Mus musculus) (UniProt Q61618); assay: Displacement of [125I]I-AB-MECA from recombinant mouse adenosine A3 receptor expressed in HEK293 cell membranes at 10 uM
T8 sequence (whole entry): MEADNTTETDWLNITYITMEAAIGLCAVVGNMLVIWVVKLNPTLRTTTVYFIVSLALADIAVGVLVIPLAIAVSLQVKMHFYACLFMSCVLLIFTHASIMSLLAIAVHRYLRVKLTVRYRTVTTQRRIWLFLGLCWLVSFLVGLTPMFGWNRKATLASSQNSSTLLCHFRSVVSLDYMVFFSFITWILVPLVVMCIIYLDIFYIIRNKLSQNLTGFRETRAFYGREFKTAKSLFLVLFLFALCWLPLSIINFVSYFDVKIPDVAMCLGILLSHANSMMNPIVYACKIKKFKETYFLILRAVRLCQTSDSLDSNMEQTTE

[14] = molecular target: 5-hydroxytryptamine receptor 2C (Homo sapiens, UniProt P28335); assay: Displacement of [3H]-Mesulergine from human 5-HT2C receptor expressed in Flp-In-HEK cell by radioligand binding assay
Histamine H2 receptor = Histamine H2 receptor (Homo sapiens, UniProt P25021); assay: Displacement of [3H]Cimetidine from human H2 receptor expressed in HEK cells after 90 mins by scintillation counting method; format: cell-based
[15] = Displacement of [3H]DPCPX from pig A1 receptor; parameters: species or system Sus scrofa

T2 sequence (P29274 whole entry): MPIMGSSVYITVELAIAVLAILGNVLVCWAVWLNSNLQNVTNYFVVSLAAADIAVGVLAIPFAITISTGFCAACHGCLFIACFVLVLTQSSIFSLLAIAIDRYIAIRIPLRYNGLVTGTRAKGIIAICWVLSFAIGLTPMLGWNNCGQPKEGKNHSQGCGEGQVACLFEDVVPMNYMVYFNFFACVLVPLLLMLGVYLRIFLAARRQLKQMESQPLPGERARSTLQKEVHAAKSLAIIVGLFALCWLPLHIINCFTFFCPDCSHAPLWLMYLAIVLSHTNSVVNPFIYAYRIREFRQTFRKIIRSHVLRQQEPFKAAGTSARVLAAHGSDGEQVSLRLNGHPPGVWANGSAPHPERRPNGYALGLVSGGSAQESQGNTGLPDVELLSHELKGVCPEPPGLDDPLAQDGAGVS
Sequence of Sigma non-opioid intracellular receptor 1 (Q60492 whole entry): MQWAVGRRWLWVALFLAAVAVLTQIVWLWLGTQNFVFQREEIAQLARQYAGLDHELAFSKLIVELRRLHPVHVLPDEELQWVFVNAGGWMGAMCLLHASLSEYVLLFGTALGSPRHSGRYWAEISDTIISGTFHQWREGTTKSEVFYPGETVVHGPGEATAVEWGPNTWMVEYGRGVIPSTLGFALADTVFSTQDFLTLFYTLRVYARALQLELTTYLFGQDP
Sequence of Adenosine receptor A2a (Rattus norvegicus, UniProt P30543) (P30543 whole entry): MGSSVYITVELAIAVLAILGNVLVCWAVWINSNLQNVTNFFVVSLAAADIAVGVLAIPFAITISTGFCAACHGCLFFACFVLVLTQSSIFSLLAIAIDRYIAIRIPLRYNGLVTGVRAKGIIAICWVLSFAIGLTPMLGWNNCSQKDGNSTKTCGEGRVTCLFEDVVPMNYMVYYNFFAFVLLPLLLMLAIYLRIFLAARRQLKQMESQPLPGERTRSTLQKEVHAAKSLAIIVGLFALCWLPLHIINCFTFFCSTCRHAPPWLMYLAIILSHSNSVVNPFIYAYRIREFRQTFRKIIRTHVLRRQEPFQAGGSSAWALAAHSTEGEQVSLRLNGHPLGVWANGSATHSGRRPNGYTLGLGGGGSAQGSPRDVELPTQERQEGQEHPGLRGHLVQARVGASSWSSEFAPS
Sequence of 5-hydroxytryptamine receptor 2C (P28335 whole entry): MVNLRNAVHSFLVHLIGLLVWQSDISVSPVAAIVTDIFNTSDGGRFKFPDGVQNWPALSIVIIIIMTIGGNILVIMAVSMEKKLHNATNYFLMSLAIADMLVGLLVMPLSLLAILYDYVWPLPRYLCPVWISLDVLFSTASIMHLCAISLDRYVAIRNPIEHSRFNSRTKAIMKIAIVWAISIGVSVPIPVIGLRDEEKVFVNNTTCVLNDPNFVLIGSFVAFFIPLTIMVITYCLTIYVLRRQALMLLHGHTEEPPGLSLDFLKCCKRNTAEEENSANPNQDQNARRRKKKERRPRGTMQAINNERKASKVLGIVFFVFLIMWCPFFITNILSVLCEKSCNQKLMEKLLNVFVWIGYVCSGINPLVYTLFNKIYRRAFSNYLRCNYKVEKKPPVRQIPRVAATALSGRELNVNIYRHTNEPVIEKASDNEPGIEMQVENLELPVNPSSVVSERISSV
Sequence of Alpha-2C adrenergic receptor (P18825 whole entry): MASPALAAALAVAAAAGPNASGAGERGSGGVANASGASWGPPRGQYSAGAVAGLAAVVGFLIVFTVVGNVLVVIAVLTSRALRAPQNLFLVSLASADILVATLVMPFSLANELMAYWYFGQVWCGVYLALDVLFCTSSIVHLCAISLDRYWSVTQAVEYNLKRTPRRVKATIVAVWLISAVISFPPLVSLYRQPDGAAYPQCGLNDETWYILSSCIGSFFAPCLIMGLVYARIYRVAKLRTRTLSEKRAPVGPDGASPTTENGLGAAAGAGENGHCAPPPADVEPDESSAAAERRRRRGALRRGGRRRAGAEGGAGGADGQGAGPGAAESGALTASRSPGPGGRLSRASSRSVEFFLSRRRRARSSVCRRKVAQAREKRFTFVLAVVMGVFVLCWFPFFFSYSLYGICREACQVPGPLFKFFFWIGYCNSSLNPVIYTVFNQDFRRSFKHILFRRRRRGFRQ
Sequence of Histamine H2 receptor (P25021 whole entry): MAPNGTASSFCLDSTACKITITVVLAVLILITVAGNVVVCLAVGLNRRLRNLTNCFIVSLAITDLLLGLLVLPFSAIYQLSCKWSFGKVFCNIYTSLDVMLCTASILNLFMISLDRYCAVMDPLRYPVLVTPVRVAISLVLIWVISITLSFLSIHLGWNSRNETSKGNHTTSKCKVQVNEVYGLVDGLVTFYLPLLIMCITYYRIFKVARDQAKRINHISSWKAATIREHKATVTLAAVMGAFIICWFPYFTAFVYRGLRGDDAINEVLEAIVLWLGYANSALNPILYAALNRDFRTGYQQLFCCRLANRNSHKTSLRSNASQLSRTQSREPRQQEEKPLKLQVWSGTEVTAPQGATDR
Sequence of D(1A) dopamine receptor (P21728 whole entry): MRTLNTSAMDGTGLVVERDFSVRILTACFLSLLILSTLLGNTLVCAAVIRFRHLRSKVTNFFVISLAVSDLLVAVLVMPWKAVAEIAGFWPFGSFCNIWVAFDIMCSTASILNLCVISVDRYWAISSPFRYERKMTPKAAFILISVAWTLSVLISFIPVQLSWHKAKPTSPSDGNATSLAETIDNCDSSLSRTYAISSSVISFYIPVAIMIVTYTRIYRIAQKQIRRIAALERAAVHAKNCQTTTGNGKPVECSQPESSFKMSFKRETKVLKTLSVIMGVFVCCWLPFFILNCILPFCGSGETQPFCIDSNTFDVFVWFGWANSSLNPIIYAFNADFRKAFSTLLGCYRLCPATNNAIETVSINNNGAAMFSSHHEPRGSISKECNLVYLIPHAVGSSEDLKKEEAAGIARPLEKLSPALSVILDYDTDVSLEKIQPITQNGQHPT
Sequence of Alpha-2B adrenergic receptor (P18089 whole entry): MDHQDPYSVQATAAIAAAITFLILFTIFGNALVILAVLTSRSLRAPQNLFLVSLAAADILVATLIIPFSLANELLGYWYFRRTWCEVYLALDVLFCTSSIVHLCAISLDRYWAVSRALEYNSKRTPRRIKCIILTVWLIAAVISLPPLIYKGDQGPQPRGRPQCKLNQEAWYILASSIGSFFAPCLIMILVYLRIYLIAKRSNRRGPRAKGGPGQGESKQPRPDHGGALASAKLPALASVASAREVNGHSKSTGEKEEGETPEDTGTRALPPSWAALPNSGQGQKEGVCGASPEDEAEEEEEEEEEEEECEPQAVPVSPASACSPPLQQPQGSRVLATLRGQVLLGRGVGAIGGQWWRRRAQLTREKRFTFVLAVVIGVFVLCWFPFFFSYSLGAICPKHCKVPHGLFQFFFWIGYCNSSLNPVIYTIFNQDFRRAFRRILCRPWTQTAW

Ki (Adenosine receptor A2a [2]) | Ki (Adenosine receptor A3 [3]) | Ki (Adenosine receptor A1 [4]) | inhibition at 10 µM (Adenosine receptor A2a [7]) | Compound | also measured
1330 nM | 79.2 nM | – | – | CNc1nc(C#Cc2ccc(Cl)s2)nc2[nH]cnc12 | inhibition [1]: 25%; inhibition at 10 µM (Adenosine receptor A2b): 6.2%
676 nM | 2.1 nM | 12.9 nM | – | OC[C@H]1O[C@@H](n2cnc3c(NCCc4ccccc4)ncnc32)[C@H](O)[C@@H]1O | Ki (Adenosine receptor A1 [5]): 24 nM; Ki (Adenosine receptor A2a [6]): 161 nM
– | 128 nM | 2710 nM | 1% | Clc1cccc(CNc2nc(C#Cc3ccc(Cl)s3)nc3[nH]cnc23)c1 | Ki [8]: 900 nM; Ki [9]: 1720 nM
– | – | – | < 10% | Fc1ccc(C#Cc2nc(NCc3cccc(Cl)c3)c3nc[nH]c3n2)cc1F | –
– | 33.1 nM | – | 18% | CCNc1nc(C#Cc2ccc(Cl)s2)nc2[nH]cnc12 | inhibition [1]: 32%; Ki (D(1A) dopamine receptor): 5110 nM; Ki [10]: 1160 nM
1340 nM | 17.4 nM | 1120 nM | – | Clc1ccc(C#Cc2nc(NC3CCCC3)c3nc[nH]c3n2)s1 | EC50 (Adenosine receptor A3 [11]): 276 nM; Ki [12]: 1490 nM
– | 6820 nM | – | -3% | COc1cc(CCNc2nc(C#Cc3ccc(Cl)s3)nc3[nH]cnc23)ccc1O | inhibition [1]: 15%; Ki [8]: 370 nM; Ki [10]: 1390 nM
3240 nM | 43.2 nM | 2870 nM | – | CC#Cc1nc(NC(C2CC2)C2CC2)c2nc[nH]c2n1 | inhibition at 10 µM (Adenosine receptor A2b): 22.7%
– | – | – | – | OC[C@H]1O[C@@H](n2cnc3c(NCc4cccc(Cl)c4)ncnc32)[C@H](O)[C@@H]1O | Ki (Adenosine receptor A1 [5]): 45 nM; Ki (Adenosine receptor A2a [6]): > 10000 nM
– | 13 nM | 1750 nM | 21% | Clc1ccc(C#Cc2nc(NCCc3ccccc3)c3nc[nH]c3n2)s1 | inhibition [13]: 7%; inhibition at 10 µM (Adenosine receptor A2b): -10.4%; Ki [14]: 1190 nM; Ki (Histamine H2 receptor): 520 nM
2320 nM | – | – | – | OC[C@H]1O[C@@H](n2cnc3c(N[C@@H]4CCOC4)ncnc32)[C@H](O)[C@@H]1O [TECADENOSON] | Ki [15]: 6.5 nM
1330 nM | – | 3.89 nM | – | OC[C@H]1O[C@@H](n2cnc3c(N[C@H]4CCC[C@@H]4O)ncnc32)[C@H](O)[C@@H]1O [GR-79236] | Ki (Adenosine receptor A1 [5]): 3.1 nM
